Experimental data published in patent publication US11370798B2 (Vertex Pharmaceuticals Incorporated, priority 2012, dated 2022).

System: HCT116 colorectal cancer cells
Assay: Cisplatin sensitization assay (96 h cell viability MTS);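 note: Test-compound concentration that lowers the Cisplatin IC50 by a set fold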
Type: cell-based
Conditions: compound and Cisplatin added simultaneously, Cisplatin sensitization value
In short: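 Compound and cisplatin added together as a full matrix of 2-fold serial dilutions from a top final concentration of 10 μM; cells incubated 96 h at 37° C, 5% CO2. Viability then read by MTS after 1 h further incubation; sensitization value reported in μM bins.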

| Structure (SMILES) | Cisplatin Sensitization Assay |
| --- | --- |
| Nc1nn2cc(F)cnc2c1C(=O)Nc1cncc(F)c1N1CCC(C(=O)N2CCNC3CC32)CC1 (stereo not shown) [I-G-62, N-(4-(4-(2,5-diazabicyclo[4.1.0]heptane-2-carbonyl)piperidin-1-yl)-5-fluoropyridin-3-yl)-2-amino-6-fluoropyrazolo[1,5-a]pyrimidine-3-carboxamide] | +++ (Cisplatin sensitization value of <0.02 μM) |
| CC1(O)CN(C(=O)C2CCN(c3c(F)cncc3NC(=O)c3c(N)nn4cc(F)cnc34)CC2)C1 [I-G-63, 2-amino-6-fluoro-N-(5-fluoro-4-(4-(3-hydroxy-3-methylazetidine-1-carbonyl)piperidin-1-yl)pyridin-3-yl)pyrazolo[1,5-a]pyrimidine-3-carboxamide] | +++ (Cisplatin sensitization value of <0.02 μM) |
| Nc1nn2cc(F)cnc2c1C(=O)Nc1cncc(F)c1N1CCC(C(=O)N2CCC(N3CCCCC3)C2)CC1 (stereo not shown) [I-G-64, 2-amino-6-fluoro-N-(5-fluoro-4-(4-(3-(piperidin-1-yl)pyrrolidine-1-carbonyl)piperidin-1-yl)pyridin-3-yl)pyrazolo[1,5-a]pyrimidine-3-carboxamide] | +++ (Cisplatin sensitization value of <0.02 μM) |
| CN1CCN(C(=O)C2CCN(c3c(F)cncc3NC(=O)c3c(N)nn4cc(F)cnc34)CC2)C2CC21 (stereo not shown) [I-G-65, 2-amino-6-fluoro-N-(5-fluoro-4-(4-(5-methyl-2,5-diazabicyclo[4.1.0]heptane-2-carbonyl)piperidin-1-yl)pyridin-3-yl)pyrazolo[1,5-a]pyrimidine-3-carboxamide] | +++ (Cisplatin sensitization value of <0.02 μM) |
| Nc1nn2cc(F)cnc2c1C(=O)Nc1cncc(Cl)c1N1CCC(C(=O)N2CCN3CCC2CC3)CC1 [I-G-66, N-(4-(4-(1,4-diazabicyclo[3.2.2]nonane-4-carbonyl)piperidin-1-yl)-5-chloropyridin-3-yl)-2-amino-6-fluoropyrazolo[1,5-a]pyrimidine-3-carboxamide] | +++ (Cisplatin sensitization value of <0.02 μM) |
| Nc1nn2cc(F)cnc2c1C(=O)Nc1cncc(F)c1N1CCC(C(=O)N2CC(F)C2)CC1 [I-G-67, 2-amino-6-fluoro-N-(5-fluoro-4-(4-(3-fluoroazetidine-1-carbonyl)piperidin-1-yl)pyridin-3-yl)pyrazolo[1,5-a]pyrimidine-3-carboxamide] | +++ (Cisplatin sensitization value of <0.02 μM) |
| Nc1nn2cc(F)cnc2c1C(=O)Nc1cncc(F)c1N1CCC(C(=O)N2CCC(N3CCC3)CC2)CC1 [I-G-68, 2-amino-N-(4-(4-(4-(azetidin-1-yl)piperidine-1-carbonyl)piperidin-1-yl)-5-fluoropyridin-3-yl)-6-fluoropyrazolo[1,5-a]pyrimidine-3-carboxamide] | +++ (Cisplatin sensitization value of <0.02 μM) |
| Nc1nn2cc(F)cnc2c1C(=O)Nc1cncc(Cl)c1N1CCC(C(=O)N2CCN3CCC2C3)CC1 (stereo not shown) [I-G-69, N-(4-(4-(1,4-diazabicyclo[3.2.1]octane-4-carbonyl)piperidin-1-yl)-5-chloropyridin-3-yl)-2-amino-6-fluoropyrazolo[1,5-a]pyrimidine-3-carboxamide] | +++ (Cisplatin sensitization value of <0.02 μM) |
| Nc1nn2cc(F)cnc2c1C(=O)Nc1cncc(F)c1N1CCC(C(=O)N2CC(F)(F)C2)CC1 [I-G-73, 2-amino-N-(4-(4-(3,3-difluoroazetidine-1-carbonyl)piperidin-1-yl)-5-fluoropyridin-3-yl)-6-fluoropyrazolo[1,5-a]pyrimidine-3-carboxamide] | +++ (Cisplatin sensitization value of <0.02 μM) |
| COC1(C)CN(C(=O)C2CCN(c3c(F)cncc3NC(=O)c3c(N)nn4cc(F)cnc34)CC2)C1 [I-G-75, 2-amino-6-fluoro-N-(5-fluoro-4-(4-(3-methoxy-3-methylazetidine-1-carbonyl)piperidin-1-yl)pyridin-3-yl)pyrazolo[1,5-a]pyrimidine-3-carboxamide] | +++ (Cisplatin sensitization value of <0.02 μM) |
| N#CC1CN(C(=O)C2CCN(c3c(F)cncc3NC(=O)c3c(N)nn4cc(F)cnc34)CC2)C1 [I-G-76, 2-amino-N-(4-(4-(3-cyanoazetidine-1-carbonyl)piperidin-1-yl)-5-fluoropyridin-3-yl)-6-fluoropyrazolo[1,5-a]pyrimidine-3-carboxamide] | +++ (Cisplatin sensitization value of <0.02 μM) |
| Nc1nn2cc(F)cnc2c1C(=O)Nc1cnccc1N1CCC(C(=O)N2CCC2)CC1 [I-G-77, 2-amino-N-(4-(4-(azetidine-1-carbonyl)piperidin-1-yl)pyridin-3-yl)-6-fluoropyrazolo[1,5-a]pyrimidine-3-carboxamide] | +++ (Cisplatin sensitization value of <0.02 μM) |
| COC1CN(C(=O)C2CCN(c3ccncc3NC(=O)c3c(N)nn4cc(F)cnc34)CC2)C1 [I-G-78, 2-amino-6-fluoro-N-(4-(4-(3-methoxyazetidine-1-carbonyl)piperidin-1-yl)pyridin-3-yl)pyrazolo[1,5-a]pyrimidine-3-carboxamide] | +++ (Cisplatin sensitization value of <0.02 μM) |
| COC1(C)CN(C(=O)C2CCN(c3ccncc3NC(=O)c3c(N)nn4cc(F)cnc34)CC2)C1 [I-G-79, 2-amino-6-fluoro-N-(4-(4-(3-methoxy-3-methylazetidine-1-carbonyl)piperidin-1-yl)pyridin-3-yl)pyrazolo[1,5-a]pyrimidine-3-carboxamide] | +++ (Cisplatin sensitization value of <0.02 μM) |
| Nc1nn2cc(F)cnc2c1C(=O)Nc1cnccc1N1CCC(C(=O)N2CC(F)(F)C2)CC1 [I-G-80, 2-amino-N-(4-(4-(3,3-difluoroazetidine-1-carbonyl)piperidin-1-yl)pyridin-3-yl)-6-fluoropyrazolo[1,5-a]pyrimidine-3-carboxamide] | +++ (Cisplatin sensitization value of <0.02 μM) |
| N#CC1CN(C(=O)C2CCN(c3ccncc3NC(=O)c3c(N)nn4cc(F)cnc34)CC2)C1 [I-G-81, 2-amino-N-(4-(4-(3-cyanoazetidine-1-carbonyl)piperidin-1-yl)pyridin-3-yl)-6-fluoropyrazolo[1,5-a]pyrimidine-3-carboxamide] | +++ (Cisplatin sensitization value of <0.02 μM) |
| Nc1nn2cc(F)cnc2c1C(=O)Nc1cnccc1N1CCC(C(=O)N2CC(F)C2)CC1 [I-G-82, 2-amino-6-fluoro-N-(4-(4-(3-fluoroazetidine-1-carbonyl)piperidin-1-yl)pyridin-3-yl)pyrazolo[1,5-a]pyrimidine-3-carboxamide] | +++ (Cisplatin sensitization value of <0.02 μM) |
| Nc1nn2cc(F)cnc2c1C(=O)Nc1cnccc1N1CCC(C(=O)N2CCCC2)CC1 [I-G-83, 2-amino-6-fluoro-N-(4-(4-(pyrrolidine-1-carbonyl)piperidin-1-yl)pyridin-3-yl)pyrazolo[1,5-a]pyrimidine-3-carboxamide] | +++ (Cisplatin sensitization value of <0.02 μM) |
| Nc1nn2cc(F)cnc2c1C(=O)Nc1cnccc1N1CCC(C(=O)N2CCC3(COC3)C2)CC1 [I-G-84, N-(4-(4-(2-oxa-6-azaspiro[3.4]octane-6-carbonyl)piperidin-1-yl)pyridin-3-yl)-2-amino-6-fluoropyrazolo[1,5-a]pyrimidine-3-carboxamide] | +++ (Cisplatin sensitization value of <0.02 μM) |
| Nc1nn2cc(F)cnc2c1C(=O)Nc1cnccc1N1CCC(C(=O)N2CCOCC2)CC1 [I-G-85, 2-amino-6-fluoro-N-(4-(4-(morpholine-4-carbonyl)piperidin-1-yl)pyridin-3-yl)pyrazolo[1,5-a]pyrimidine-3-carboxamide] | +++ (Cisplatin sensitization value of <0.02 μM) |
| CS(=O)(=O)C1CN(C(=O)C2CCN(c3c(F)cncc3NC(=O)c3c(N)nn4cc(F)cnc34)CC2)C1 [I-G-86, 2-amino-6-fluoro-N-(5-fluoro-4-(4-(3-(methylsulfonyl)azetidine-1-carbonyl)piperidin-1-yl)pyridin-3-yl)pyrazolo[1,5-a]pyrimidine-3-carboxamide] | +++ (Cisplatin sensitization value of <0.02 μM) |
| Nc1nn2cc(Cl)cnc2c1C(=O)Nc1cncc(F)c1N1CCC(C(=O)N2CCN3CCC2CC3)CC1 [I-G-87, N-(4-(4-(1,4-diazabicyclo[3.2.2]nonane-4-carbonyl)piperidin-1-yl)-5-fluoropyridin-3-yl)-2-amino-6-chloropyrazolo[1,5-a]pyrimidine-3-carboxamide] | +++ (Cisplatin sensitization value of <0.02 μM) |
| Nc1nn2cc(F)cnc2c1C(=O)Nc1cnccc1N1CCC(C(=O)N2CC3(COC3)C2)CC1 [I-G-88, N-(4-(4-(2-oxa-6-azaspiro[3.3]heptane-6-carbonyl)piperidin-1-yl)pyridin-3-yl)-2-amino-6-fluoropyrazolo[1,5-a]pyrimidine-3-carboxamide] | +++ (Cisplatin sensitization value of <0.02 μM) |
| CS(=O)(=O)C1CN(C(=O)C2CCN(c3ccncc3NC(=O)c3c(N)nn4cc(F)cnc34)CC2)C1 [I-G-89, 2-amino-6-fluoro-N-(4-(4-(3-(methylsulfonyl)azetidine-1-carbonyl)piperidin-1-yl)pyridin-3-yl)pyrazolo[1,5-a]pyrimidine-3-carboxamide] | + (Cisplatin sensitization value>0.2 μM but <5 μM) |
| Nc1nn2cc(F)cnc2c1C(=O)Nc1cnccc1N1CCC(C(=O)N2CC3(CCO3)C2)CC1 [I-G-90, N-(4-(4-(1-oxa-6-azaspiro[3.3]heptane-6-carbonyl)piperidin-1-yl)pyridin-3-yl)-2-amino-6-fluoropyrazolo[1,5-a]pyrimidine-3-carboxamide] | +++ (Cisplatin sensitization value of <0.02 μM) |
